Laboratory results reported in patent US20260053811A1, “METHODS OF TREATING HYPERTENSION IN OBESE SUBJECTS” (Mineralys Therapeutics, Inc., priority 2022, published 2026).

System: hypertensive subjects
Assay: Seated automated office blood pressure (AOBP) in randomized, placebo-controlled, dose-ranging study
Type: in vivo, human
Set-up: Difference from placebo in change in blood pressure: unit not given here
Description: A randomized, double-blinded, placebo-controlled, dose-ranging, multicenter study was conducted to evaluate the effect of orally administered Compound A HBr on blood pressure for the treatment of hypertension in male and female subjects ≥18 years of age.
The study consists of two parts. For enrollment into Part 1 of the study, a subject's value of plasma renin activity (PRA) must be ≤1 ng/mL/h based on morning measurement. If the value of PRA >1 ng/mL/h based on morning measurement, then subjects may be eligible to enter Part 2 of the study.
For Part 1, 163 enrolled subjects ≥18 years of age were randomized into 6 equal treatment groups (1:1:1:1:1:1) to 12.5 mg BID, 25 mg BID, 12.5 mg QD, 50 mg QD, 100 mg QD, or placebo. After a review of interim clinical data, the 2 lowest dose levels (12.5 mg QD and 12.5 mg BID) were stopped for future randomization due to a lack of consistent meaningful reduction of blood pressure, but the patients randomized to that point remained in the study through completion. Thus, after the review of interim clinical data, subjects were randomized into 4 equal treatment groups (1:1:1:1) to 25 mg BID, 50 mg QD, 100 mg QD, or placebo.
For Part 2, 36 enrolled subjects ≥18 years of age were randomized (5:1) to either 100 mg QD Compound A HBr or placebo such that the Compound A HBr treatment group consisted of approximately 30 subjects and the placebo treatment group will consist of approximately 6 subjects.
Subjects orally administered the assigned study drug (Compound A HBr or placebo) according to the assigned dosing regimen for 8 weeks beginning on Study Day 1. All subjects in Part 1 (regardless of dosing group) received BID dosing to preserve the integrity of the blind; active drug is administered as the morning dose for all QD dose groups. Subjects returned to the research facility or were seen by the clinical investigator or approved home health care professional at the end of Study Weeks 1, 2, 3, 4, 5, 6, 7, and 8 (±2 days) for protocol-defined efficacy and safety assessments and procedures, assessment of adverse events (AEs), and confirmation of compliance with study drug usage. Subjects also completed a telephone visit and blood pressure (BP) check at home approximately 3 days post last dose of study drug. Subjects attended up to 14 full clinic visits, including a pre-Screening visit, a Screening/start of Placebo Run-in visit, a second visit during Placebo Run-in, a clinic visit to initiate the ABPM procedure, a Randomization visit, 8 weekly visits during double-blind treatment, and an end-of-study visit scheduled 4 weeks after the last study treatment for final efficacy and safety assessments.
An automated oscillometric sphygmomanometer device was used to measure the subjects' systolic and diastolic blood pressure in office after approximately 5 minutes of rest in the seated position.
The primary endpoint is the change in office-measured (mean of last 2 of 5 unattended measurements using an automated oscillometric sphygmomanometer device after approximately 5 minutes of rest in the seated position) systolic blood pressure (SBP) from baseline to the end of Study Week 8.
Secondary endpoints of this study were: • (a) Change in 24-hour ambulatory blood pressure monitoring (ABPM) parameters (systolic and diastolic) from baseline to the end of Study Week 7. • (b) Change in office-measured SBP from baseline to the end of Study Weeks 1, 2, 3, 4, 5, 6, and 7. • (c) Change in office-measured diastolic blood pressure (DBP) from baseline to the end of Study Weeks 1, 2, 3, 4, 5, 6, 7, and 8. • (d) Proportion of subjects who achieve office-measured BP of ≤130/80 mm Hg by the end of Study Week 8.

[1] = 12.5 mg BID, Week 1, Part 1, FAS
[2] = 12.5 mg BID, Week 2, Part 1, FAS
[3] = 12.5 mg BID, Week 3, Part 1, FAS
[4] = 12.5 mg BID, Week 4, Part 1, FAS
[5] = 12.5 mg BID, Week 5, Part 1, FAS
[6] = 12.5 mg BID, Week 6, Part 1, FAS
[7] = 12.5 mg BID, Week 7, Part 1, FAS
[8] = 12.5 mg BID, Week 8, Part 1, FAS

## CC(=O)N[C@H]1CC[C@H](NC(=O)CN2CCN(c3nncc(-c4ccc(C)cc4)n3)CC2)CC1 [Compound A HBr]
12.5 mg BID, BMI 25-30
  Difference from placebo in change in blood pressure: −3.5
12.5 mg BID, BMI >30
  Difference from placebo in change in blood pressure: −10.1
12.5 mg BID, Thiazide No
  Difference from placebo in change in blood pressure: −1.4
12.5 mg BID, Thiazide Yes
  Difference from placebo in change in blood pressure: −10.6
[1]
  Seated AOBP DBP change from baseline (CFB), Mean (SD): −5.95 (6.17) mmHg
  Seated AOBP DBP, Mean (SD): 75.59 (8.32) mmHg
  Seated AOBP SBP change from baseline (CFB), Mean (SD): −8.89 (11.51) mmHg
  Seated AOBP SBP, Mean (SD): 135.68 (14.48) mmHg
[2]
  Seated AOBP DBP change from baseline (CFB), Mean (SD): −7.32 (9.14) mmHg
  Seated AOBP DBP, Mean (SD): 74.23 (10.15) mmHg
  Seated AOBP SBP change from baseline (CFB), Mean (SD): −11.98 (13.02) mmHg
  Seated AOBP SBP, Mean (SD): 132.59 (14.70) mmHg
[3]
  Seated AOBP DBP change from baseline (CFB), Mean (SD): −0.93 (7.51) mmHg
  Seated AOBP DBP, Mean (SD): 79.95 (9.17) mmHg
  Seated AOBP SBP change from baseline (CFB), Mean (SD): −5.80 (9.60) mmHg
  Seated AOBP SBP, Mean (SD): 137.70 (15.37) mmHg
[4]
  LSM Δ with Placebo, seated AOBP DBP (MMRM): −4.48 mmHg
  Modelled (MMRM) LSM (SEM) change from baseline, seated AOBP DBP: −5.02 (1.67) mmHg
  Seated AOBP DBP change from baseline (CFB), Mean (SD): −4.18 (10.21) mmHg
  Seated AOBP DBP, Mean (SD): 75.79 (10.69) mmHg
  Seated AOBP SBP change from baseline (CFB), Mean (SD): −10.71 (12.27) mmHg
  Seated AOBP SBP, Mean (SD): 132.95 (15.79) mmHg
[5]
  Seated AOBP DBP change from baseline (CFB), Mean (SD): −7.00 (7.81) mmHg
  Seated AOBP DBP, Mean (SD): 73.50 (10.13) mmHg
  Seated AOBP SBP change from baseline (CFB), Mean (SD): −12.53 (13.34) mmHg
  Seated AOBP SBP, Mean (SD): 131.44 (13.13) mmHg
[6]
  Seated AOBP DBP change from baseline (CFB), Mean (SD): −6.47 (6.39) mmHg
  Seated AOBP DBP, Mean (SD): 74.95 (10.29) mmHg
  Seated AOBP SBP change from baseline (CFB), Mean (SD): −14.00 (14.80) mmHg
  Seated AOBP SBP, Mean (SD): 129.79 (15.24) mmHg
[7]
  Seated AOBP DBP change from baseline (CFB), Mean (SD): −5.76 (7.62) mmHg
  Seated AOBP DBP, Mean (SD): 74.21 (9.64) mmHg
  Seated AOBP SBP change from baseline (CFB), Mean (SD): −11.76 (13.06) mmHg
  Seated AOBP SBP, Mean (SD): 131.89 (11.93) mmHg
[8]
  LSM Δ from Placebo, change from baseline in seated AOBP SBP (MMRM): −7.2 mmHg
  LSM Δ with Placebo, seated AOBP DBP (MMRM): −3.84 mmHg
  Modelled (MMRM) LSM (SEM) change from baseline, seated AOBP DBP: −5.47 (2.02) mmHg
  Modelled (MMRM) LSM (SEM) change from baseline, seated AOBP SBP: −11.30 (3.15) mmHg
  Seated AOBP DBP change from baseline (CFB), Mean (SD): −5.84 (8.78) mmHg
  Seated AOBP DBP, Mean (SD): 75.21 (10.07) mmHg
  Seated AOBP SBP change from baseline (CFB), Mean (SD): −13.79 (17.70) mmHg
  Seated AOBP SBP, Mean (SD): 131.89 (12.93) mmHg
  Subjects with seated AOBP SBP/DBP ≤130/80 mmHg: No: 15 (68.2) n (%)
  Subjects with seated AOBP SBP/DBP ≤130/80 mmHg: Yes: 7 (31.8) n (%)
12.5 mg QD, BMI 25-30
  Difference from placebo in change in blood pressure: −.14
